Patent US20240123078A1, “COMPOUNDS AND METHODS FOR MODULATING IMMUNE-RELATED PROTEINS” (Vividion Therapeutics, Inc., priority 2019, published 2024)

Tests used:
Assay in all cases: Cysteine reactivity ABPP
Assay type in all cases: binding
[1] = target: T1, PELP1 Proline-, glutamic acid- and leucine-rich protein 1 C71 (Q8IZL8) (Homo sapiens, UniProt Q8IZL8)
T1 construct: endogenous in cells; host or cells: primary human T cells
Description: (§1) Activated or expanded primary human T cells were re-suspended in RPMI (1×10^6 cells/mL) containing 10% fetal bovine serum (FBS), penicillin (100 U/mL), streptomycin ([…]), and L-glutamine (2 mM). The cells were treated with DMSO or compounds for 3 h, pelleted (524 g, 5 min), washed with PBS, and lysed by sonication (2×8 pulses). Soluble and particulate proteomic fractions were separated by ultracentrifugation (100,000 g, 45 min), and protein concentration was normalized to 1.7 mg/mL using a standard DC protein assay (Bio-Rad). The resulting proteomes were analyzed by competitive isotopic Tandem Orthogonal Proteolysis Activity-Based Protein Profiling (isoTOP-ABPP).
(§2) The heavy/light isoTOP-ABPP ratios (R values) for each unique peptide (DMSO/compound treated) were quantified with in-house CIMAGE software (Weerapana et al., 2010) using default parameters (3 MS1 acquisitions per peak and signal to noise threshold set to 2.5). Site-specific engagement of cysteine residues was assessed by blockade of IA-alkyne probe labeling. […] Ratios for unique peptide sequences were calculated for each experiment; overlapping peptides with the same modified cysteine (e.g., different charge states, elution times or tryptic termini) were grouped together and the median ratio was reported as the final ratio (R). Additionally, ratios for peptide sequences containing multiple cysteines were grouped together. When aggregating data across experimental replicates, the mean of each experimental median R was reported. The peptide ratios reported by CIMAGE were further filtered to ensure the removal or correction of low-quality ratios in each individual dataset. The quality filters applied were the following: removal of half-tryptic peptides, removal of peptides with more than one tryptic miscleaved, removal of peptides with R=20 and only a single MS2 event triggered during the elution of the parent ion, removal of non-unique peptides. Further filtering was then performed as described below for each experiment type.
(§3) Samples (500 μL, 1.7 mg/mL) were treated with iodoacetamide desthiobiotin (IA-DTB, 5 μL of 10 mM stock in DMSO, final concentration: 100 μM) for 1 h at ambient temperature. Ice-cold MeOH (500 μL) and CHCl3 (200 μL) were then added, the mixture was vortexed and centrifuged (10,000 g, 10 min, 4° C.) to afford a protein disc at the interface of CHCl3 and aqueous layers. Both layers were aspirated without perturbing the disk, which was re-suspended in cold methanol (500 μL) and CHCl3 (200 μL) by sonication. The proteins were pelleted (10,000 g, 10 min, 4° C.), and the resulting pellets were re-suspended in a buffer (90 μL) containing 9M urea, 10 mM DTT and 50 mM triethylammonium bicarbonate ( 1/20 dilution of 1.0 M stock solution, pH 8.5) by thorough pipetting up and down. The resulting mixture was heated at 65° C. for 20 min. Sample was cooled to room temp, iodoacetamide (10 μL, 500 mM solution in H2O) was added, and the samples were incubated at 37° C. for 30 min with shaking.
(§4) At individual TMT experiment level, the following filters were applied to remove low-quality peptides: removal of non-unique peptides; removal of half-tryptic peptides; removal of peptides with more than one internal miscleaved site; removal of peptides with low (<10,000) sum of reporter ion intensities for control channels, and peptides with high variation between the replicate control channels (coefficient of variance >0.5). R values (compound-treated vs. DMSO-treated) for each peptide entry were calculated using the reporter ion intensities of DMSO and compound treated TMT channels for each treatment group with a maximum ratio cap of 20. […]

[2] = target: T2, CBLB E3 ubiquitin-protein ligase CBL-B C686 (Q13191) (Homo sapiens, UniProt Q13191)
T2 construct: endogenous in cells; host or cells: primary human T cells
T2 sequence (Q13191 whole entry): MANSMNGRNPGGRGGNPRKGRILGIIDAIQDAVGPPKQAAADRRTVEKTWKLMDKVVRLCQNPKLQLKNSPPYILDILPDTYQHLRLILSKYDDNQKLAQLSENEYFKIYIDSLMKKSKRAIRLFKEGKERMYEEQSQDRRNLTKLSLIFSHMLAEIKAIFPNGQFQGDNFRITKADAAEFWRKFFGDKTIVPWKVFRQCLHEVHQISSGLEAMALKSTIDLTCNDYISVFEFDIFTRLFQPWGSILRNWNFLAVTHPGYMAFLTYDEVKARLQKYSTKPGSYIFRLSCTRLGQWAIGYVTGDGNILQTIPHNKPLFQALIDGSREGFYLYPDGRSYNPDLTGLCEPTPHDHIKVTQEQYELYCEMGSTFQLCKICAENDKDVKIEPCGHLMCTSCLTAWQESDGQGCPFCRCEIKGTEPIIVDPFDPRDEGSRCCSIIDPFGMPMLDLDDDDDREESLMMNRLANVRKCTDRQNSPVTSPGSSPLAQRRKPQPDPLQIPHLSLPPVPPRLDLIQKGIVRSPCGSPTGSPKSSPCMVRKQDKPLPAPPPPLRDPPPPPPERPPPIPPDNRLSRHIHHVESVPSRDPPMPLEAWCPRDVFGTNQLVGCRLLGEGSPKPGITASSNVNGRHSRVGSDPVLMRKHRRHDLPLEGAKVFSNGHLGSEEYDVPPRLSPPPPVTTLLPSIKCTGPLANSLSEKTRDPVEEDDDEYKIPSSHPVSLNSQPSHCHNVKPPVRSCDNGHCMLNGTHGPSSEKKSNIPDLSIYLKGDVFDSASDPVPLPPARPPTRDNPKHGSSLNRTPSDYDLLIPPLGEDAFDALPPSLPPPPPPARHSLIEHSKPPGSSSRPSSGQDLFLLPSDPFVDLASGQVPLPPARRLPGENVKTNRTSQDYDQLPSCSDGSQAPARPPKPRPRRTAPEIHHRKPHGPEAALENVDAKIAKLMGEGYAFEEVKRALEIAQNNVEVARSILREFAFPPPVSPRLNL
Description: as §1, §2, §3, §4

[3] = target: T3, PFKFB3 6-phosphofructo-2-kinase/fructose-2,6-bisphosphatase 3 C155 (Q16875) (Homo sapiens, UniProt Q16875)
T3 construct: endogenous in cells; host or cells: primary human T cells
T3 sequence (Q16875 whole entry, one chain of several): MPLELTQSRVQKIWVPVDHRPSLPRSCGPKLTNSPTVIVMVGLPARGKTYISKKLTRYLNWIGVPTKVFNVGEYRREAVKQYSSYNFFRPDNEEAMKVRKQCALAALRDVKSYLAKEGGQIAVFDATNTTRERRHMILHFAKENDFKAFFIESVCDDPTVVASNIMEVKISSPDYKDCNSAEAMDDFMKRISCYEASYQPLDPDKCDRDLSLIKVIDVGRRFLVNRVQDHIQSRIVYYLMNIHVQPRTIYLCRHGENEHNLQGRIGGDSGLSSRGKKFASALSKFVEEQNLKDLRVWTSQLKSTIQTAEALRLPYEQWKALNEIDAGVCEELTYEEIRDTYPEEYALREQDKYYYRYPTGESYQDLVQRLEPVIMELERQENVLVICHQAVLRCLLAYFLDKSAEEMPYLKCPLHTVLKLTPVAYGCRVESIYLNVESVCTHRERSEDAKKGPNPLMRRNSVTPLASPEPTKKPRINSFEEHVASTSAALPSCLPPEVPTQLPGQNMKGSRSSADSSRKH
Description: as §1, §2, §3, §4

[4] = target: T4, PTPN11 Tyrosine-protein phosphatase non-receptor type 11 C259 (Q06124) (Homo sapiens, UniProt Q06124)
T4 construct: endogenous in cells; host or cells: primary human T cells
T4 sequence (Q06124 1-593): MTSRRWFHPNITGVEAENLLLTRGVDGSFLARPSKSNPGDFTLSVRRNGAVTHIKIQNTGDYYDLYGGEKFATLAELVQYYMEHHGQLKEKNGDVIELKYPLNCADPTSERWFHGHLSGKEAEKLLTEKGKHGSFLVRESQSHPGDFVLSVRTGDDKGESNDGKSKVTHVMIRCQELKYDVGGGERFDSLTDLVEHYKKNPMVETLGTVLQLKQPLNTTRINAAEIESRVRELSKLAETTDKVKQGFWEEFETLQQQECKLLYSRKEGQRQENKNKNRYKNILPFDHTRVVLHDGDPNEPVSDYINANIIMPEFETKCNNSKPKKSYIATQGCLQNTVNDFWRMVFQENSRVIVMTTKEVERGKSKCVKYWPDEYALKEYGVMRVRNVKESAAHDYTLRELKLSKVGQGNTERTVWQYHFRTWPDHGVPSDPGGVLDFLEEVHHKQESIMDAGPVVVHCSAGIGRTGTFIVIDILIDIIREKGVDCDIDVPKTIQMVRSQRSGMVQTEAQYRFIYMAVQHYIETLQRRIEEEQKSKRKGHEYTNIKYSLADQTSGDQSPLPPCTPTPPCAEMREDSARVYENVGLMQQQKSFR
Description: as §1, §2, §3, §4

[5] = target: T5, STAT3 Signal transducer and activator of transcription 3 C712, C718 (P40763) (Homo sapiens, UniProt P40763)
T5 construct: endogenous in cells; host or cells: primary human T cells
T5 sequence (P40763 whole entry, one chain of several): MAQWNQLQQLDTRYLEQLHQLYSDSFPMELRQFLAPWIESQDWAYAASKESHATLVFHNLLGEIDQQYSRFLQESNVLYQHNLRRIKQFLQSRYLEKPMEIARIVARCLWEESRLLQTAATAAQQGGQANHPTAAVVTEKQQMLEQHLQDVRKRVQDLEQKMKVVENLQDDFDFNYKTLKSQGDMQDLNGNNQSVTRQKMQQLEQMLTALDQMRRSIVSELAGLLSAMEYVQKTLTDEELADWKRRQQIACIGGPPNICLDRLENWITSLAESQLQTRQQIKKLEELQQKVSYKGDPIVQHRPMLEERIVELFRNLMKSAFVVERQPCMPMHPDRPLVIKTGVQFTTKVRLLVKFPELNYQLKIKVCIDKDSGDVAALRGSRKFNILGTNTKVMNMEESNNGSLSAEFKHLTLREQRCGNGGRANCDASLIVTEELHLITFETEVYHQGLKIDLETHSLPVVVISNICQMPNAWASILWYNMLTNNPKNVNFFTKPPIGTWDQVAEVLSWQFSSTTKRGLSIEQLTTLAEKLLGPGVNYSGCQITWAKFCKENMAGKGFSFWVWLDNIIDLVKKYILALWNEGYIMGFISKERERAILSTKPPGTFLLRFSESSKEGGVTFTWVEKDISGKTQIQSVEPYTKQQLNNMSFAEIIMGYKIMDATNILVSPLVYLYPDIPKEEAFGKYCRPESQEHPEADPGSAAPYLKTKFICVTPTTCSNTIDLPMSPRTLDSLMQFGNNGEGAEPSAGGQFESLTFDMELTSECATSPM
Description: as §1, §2, §3, §4

[6] = target: T6, ATP2A2 Sarcoplasmic/endoplasmic reticulum calcium ATPase 2 C997 (P16615) (Homo sapiens, UniProt P16615)
T6 construct: endogenous in cells; host or cells: primary human T cells
Description: as §1, §2, §3, §4

[7] = target: T7, TRANK1 TPR and ankyrin repeat-containing protein 1 C1319 (O15050) (Homo sapiens, UniProt O15050)
T7 construct: Soluble and particulate proteomic fractions were separated by ultracentrifugation; endogenous in cells; host or cells: primary human T cells
Description: as §1, §2, §3, §4

[8] = target: T8, STAT3 Signal transducer and activator of transcription 3 C259 (P40763) (Homo sapiens, UniProt P40763)
T8 construct: endogenous in cells; host or cells: primary human T cells
T8 sequence (P40763 whole entry, one chain of several): as above
Description: as §1, §2, §3, §4

[9] = target: T9, JAK1 Tyrosine-protein kinase JAK1 C810, C817 (P23458) (Homo sapiens, UniProt P23458)
T9 construct: endogenous in cells; host or cells: primary human T cells
T9 sequence (P23458 whole entry): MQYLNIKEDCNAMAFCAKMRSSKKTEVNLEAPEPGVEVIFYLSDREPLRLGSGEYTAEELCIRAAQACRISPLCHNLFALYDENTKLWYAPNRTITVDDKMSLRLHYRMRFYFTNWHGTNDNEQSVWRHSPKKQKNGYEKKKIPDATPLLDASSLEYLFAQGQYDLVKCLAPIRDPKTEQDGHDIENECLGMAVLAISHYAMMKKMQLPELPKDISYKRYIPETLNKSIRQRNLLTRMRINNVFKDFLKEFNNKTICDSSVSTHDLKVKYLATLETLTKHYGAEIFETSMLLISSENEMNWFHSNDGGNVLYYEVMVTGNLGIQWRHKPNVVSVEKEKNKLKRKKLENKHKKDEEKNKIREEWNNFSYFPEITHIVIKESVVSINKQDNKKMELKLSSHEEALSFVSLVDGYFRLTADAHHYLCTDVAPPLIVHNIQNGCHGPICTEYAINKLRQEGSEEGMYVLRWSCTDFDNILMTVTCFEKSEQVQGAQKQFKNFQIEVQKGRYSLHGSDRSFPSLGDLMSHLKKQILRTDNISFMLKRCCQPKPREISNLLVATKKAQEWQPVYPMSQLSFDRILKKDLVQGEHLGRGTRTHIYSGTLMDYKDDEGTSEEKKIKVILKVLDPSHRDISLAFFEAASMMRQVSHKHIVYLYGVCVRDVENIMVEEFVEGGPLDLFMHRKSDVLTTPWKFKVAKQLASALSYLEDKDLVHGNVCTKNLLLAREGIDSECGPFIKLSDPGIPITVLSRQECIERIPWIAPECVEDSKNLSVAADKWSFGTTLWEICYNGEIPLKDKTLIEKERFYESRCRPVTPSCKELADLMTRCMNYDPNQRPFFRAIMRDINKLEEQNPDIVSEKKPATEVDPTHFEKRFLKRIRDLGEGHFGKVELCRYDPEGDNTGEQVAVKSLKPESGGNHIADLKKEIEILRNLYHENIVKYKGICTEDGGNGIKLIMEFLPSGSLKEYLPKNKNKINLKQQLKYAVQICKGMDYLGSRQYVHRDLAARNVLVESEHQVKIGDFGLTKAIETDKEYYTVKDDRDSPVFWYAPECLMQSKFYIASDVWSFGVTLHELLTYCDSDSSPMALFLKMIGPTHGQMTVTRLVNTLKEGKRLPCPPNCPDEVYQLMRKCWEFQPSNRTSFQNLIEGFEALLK
Description: as §1, §2, §3, §4

T1 sequence (Q8IZL8 whole entry, one chain of several): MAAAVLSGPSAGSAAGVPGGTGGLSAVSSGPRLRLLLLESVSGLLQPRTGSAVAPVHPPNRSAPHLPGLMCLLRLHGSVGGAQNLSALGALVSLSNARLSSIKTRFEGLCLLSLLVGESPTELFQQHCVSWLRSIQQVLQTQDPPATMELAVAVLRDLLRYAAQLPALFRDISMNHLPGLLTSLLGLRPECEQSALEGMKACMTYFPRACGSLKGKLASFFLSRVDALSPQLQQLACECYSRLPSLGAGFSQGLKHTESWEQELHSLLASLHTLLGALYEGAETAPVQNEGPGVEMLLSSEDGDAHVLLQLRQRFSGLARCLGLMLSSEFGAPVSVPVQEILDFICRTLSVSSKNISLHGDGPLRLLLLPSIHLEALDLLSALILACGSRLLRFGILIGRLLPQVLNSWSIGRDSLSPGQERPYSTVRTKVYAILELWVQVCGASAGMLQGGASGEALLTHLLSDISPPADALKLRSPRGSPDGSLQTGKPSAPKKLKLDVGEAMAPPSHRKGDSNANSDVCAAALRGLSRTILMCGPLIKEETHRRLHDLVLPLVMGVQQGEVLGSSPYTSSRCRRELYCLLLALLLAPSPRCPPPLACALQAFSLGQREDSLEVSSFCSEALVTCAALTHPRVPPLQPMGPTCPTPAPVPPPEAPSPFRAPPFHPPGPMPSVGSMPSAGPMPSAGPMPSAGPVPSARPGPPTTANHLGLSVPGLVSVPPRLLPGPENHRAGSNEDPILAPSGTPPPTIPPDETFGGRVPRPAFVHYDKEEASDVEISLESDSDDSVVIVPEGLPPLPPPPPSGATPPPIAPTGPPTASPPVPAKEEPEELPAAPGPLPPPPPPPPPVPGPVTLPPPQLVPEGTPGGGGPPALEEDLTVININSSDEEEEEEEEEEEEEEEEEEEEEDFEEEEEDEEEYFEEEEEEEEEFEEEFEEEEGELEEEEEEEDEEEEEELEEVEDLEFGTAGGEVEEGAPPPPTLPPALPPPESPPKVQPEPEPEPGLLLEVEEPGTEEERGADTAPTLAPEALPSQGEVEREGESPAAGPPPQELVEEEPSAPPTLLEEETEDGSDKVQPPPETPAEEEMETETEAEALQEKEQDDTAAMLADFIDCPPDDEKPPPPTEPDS

## O=C(CCl)N1CCN(S(=O)(=O)c2ccc(-c3ccncc3)cc2)CC1 [Compound B9]
[1]; 100
  Cysteine reactivity proteomic data: 71.33
[2]; 100 μM
  Cysteine reactivity proteomic data: 25.6002
[2]; 500 μM
  Cysteine reactivity proteomic data: 76.6489
[3]; 100 μM
  Cysteine reactivity proteomic data: 26.69
[3]; 500 μM
  Cysteine reactivity proteomic data: 90.3507
[4]; 100 μM
  Cysteine reactivity proteomic data: 16.62
[4]; 500 μM
  Cysteine reactivity proteomic data: 84.5074
[5]; 100 μM
  Cysteine reactivity proteomic data: 64.9054
[5]; 500 μM
  Cysteine reactivity proteomic data: 69.5373
[6]; 100
  Cysteine reactivity proteomic data: 22.19
[7]; 100
  Cysteine reactivity proteomic data: 82.88
[8]; 100 μM
  Cysteine reactivity proteomic data: 42.3797
[8]; 500 μM
  Cysteine reactivity proteomic data: 73.3713
[9]; 100 μM
  Cysteine reactivity proteomic data: 18.7286
[9]; 500 μM
  Cysteine reactivity proteomic data: 90.3525

## C=CC(=O)N(Cc1cccc(Cl)c1Cl)c1ccc(Oc2ccccc2)c(C(F)(F)F)c1 [Compound K4]
[1]; 500 μM
  Cysteine reactivity proteomic data: 1.71
[2]; 500 μM
  Cysteine reactivity proteomic data: 2.418
[3]; 500 μM
  Cysteine reactivity proteomic data: −24.3435
[4]; 500 μM
  Cysteine reactivity proteomic data: 28.7525
[5]; 500 μM
  Cysteine reactivity proteomic data: 12.6621
[6]; 500 μM
  Cysteine reactivity proteomic data: 61.48
[7]; 500 μM
  Cysteine reactivity proteomic data: 6.5
[8]; 500 μM
  Cysteine reactivity proteomic data: 13.6326
[9]; 500 μM
  Cysteine reactivity proteomic data: 39.2015
